Like-named read-outs stand apart in the source and are kept apart here.
Columns and labels:
[1] = biological target: T1, factor VIIa/tissue factor (Homo sapiens, UniProt P08709); assay: Factor VIIa assay (chromogenic, substrate S-2288); type: biochemical
T1 construct: 25 μl human factor VIIa and TF (5 nM and 10 nM, respective final concentrations)
Protocol: (§1) Purified enzymes are used in chromogenic assays.
(§2) Ki=IC50/{1+(substrate concentration/Km)}
Kinetic assays were conducted at 25° C. in half-area microtiter plates (Costar Corp., Cambridge, Mass.) using a kinetic plate reader (Molecular Devices Spectramax 250).

[2] = biological target: T2, human factor Xa (Homo sapiens, UniProt P00742); assay: Factor Xa assay (chromogenic, substrate S-2765); type: biochemical
T2 construct: purchased Enzyme Research Laboratories, Inc; South Bend, Ind
T2 sequence (P00742 235-488 limits assumed): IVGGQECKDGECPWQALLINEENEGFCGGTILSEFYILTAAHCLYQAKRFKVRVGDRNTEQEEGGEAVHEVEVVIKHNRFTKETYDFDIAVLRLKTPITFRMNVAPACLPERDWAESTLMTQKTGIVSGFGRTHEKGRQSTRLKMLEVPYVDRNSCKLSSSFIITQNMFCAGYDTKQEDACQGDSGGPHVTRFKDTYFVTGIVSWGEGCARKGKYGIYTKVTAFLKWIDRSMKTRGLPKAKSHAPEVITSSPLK
T2 sequence (P00742 41-179 limits assumed): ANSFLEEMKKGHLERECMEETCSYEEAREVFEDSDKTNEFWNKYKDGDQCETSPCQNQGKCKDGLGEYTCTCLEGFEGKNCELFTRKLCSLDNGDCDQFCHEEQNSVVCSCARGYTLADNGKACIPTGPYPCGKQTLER
Protocol: as §1, §2
The assay was performed by pre-incubating the compound of interest of formula I plus enzyme for 10 min. The assay was then initiated by adding substrate to obtain a final volume of 100 μl. The initial velocity of chromogenic substrate hydrolysis was measured by the change in absorbance at 405 nm using a Bio-tek Instruments kinetic plate reader (Ceres UV9OOHDi) at 25° C. during the linear portion of the time course (usually 1.5 min after addition of substrate).

[3] = inhibition constant for inhibition of factor VIIa, 5 nM factor VIIa and 10 nM TF, 25° C., 500 μM substrate, read-out: Ki (FVIIa)
[4] = inhibition constant for inhibition of factor Xa, 25° C., 0.5 nM enzyme, 140 μM substrate, read-out: Ki (FXa)

T1 sequence (P08709 61-212): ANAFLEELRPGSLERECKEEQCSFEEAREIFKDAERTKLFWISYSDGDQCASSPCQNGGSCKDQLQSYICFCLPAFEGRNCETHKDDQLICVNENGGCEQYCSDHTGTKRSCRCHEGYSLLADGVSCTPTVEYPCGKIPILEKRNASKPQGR
T1 sequence (P08709 213-466): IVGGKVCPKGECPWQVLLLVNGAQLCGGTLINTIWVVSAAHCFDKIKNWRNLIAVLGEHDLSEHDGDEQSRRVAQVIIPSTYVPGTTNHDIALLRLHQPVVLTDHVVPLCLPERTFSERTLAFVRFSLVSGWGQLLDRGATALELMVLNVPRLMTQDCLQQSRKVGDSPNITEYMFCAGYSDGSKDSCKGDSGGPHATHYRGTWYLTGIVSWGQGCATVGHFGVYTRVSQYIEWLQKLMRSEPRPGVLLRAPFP
T1 sequence (P13726 33-295, further chain): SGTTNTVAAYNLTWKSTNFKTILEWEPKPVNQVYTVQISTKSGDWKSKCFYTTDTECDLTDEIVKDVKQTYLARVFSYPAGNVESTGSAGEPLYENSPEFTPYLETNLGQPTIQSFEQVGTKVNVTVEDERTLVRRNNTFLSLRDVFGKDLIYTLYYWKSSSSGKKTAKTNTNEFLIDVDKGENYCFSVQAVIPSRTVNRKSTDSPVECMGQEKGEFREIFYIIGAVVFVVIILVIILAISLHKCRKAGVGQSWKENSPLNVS

| SMILES | Ki [1, 3] [µM] | Ki [2] [µM] | Ki [2, 4] [µM] | Ki [1] [µM] |
| --- | --- | --- | --- | --- |
| N=C(N)NCCC[C@H](NC(=O)c1ccc([N+](=O)[O-])c(OCCc2ccc(Cl)cc2Cl)c1)C(N)=O [Example 1, (S)-4-Nitro-N-(1-carbamoyl-4-guanidinobutyl)-3-[2-(2,4-dichlorophenyl)ethoxy]benzamide] | 188 | 0.048 |  |  |
| N=C(N)NCCC[C@H](NC(=O)c1ccc(N)c(OCCc2ccc(Cl)cc2Cl)c1)C(N)=O [Example 2, (S)-4-Amino-N-(-carbamoyl-4-guanidinobutyl)-3-[2-(2,4-dichlorophenyl)ethoxy]benzamide] |  |  | 0.076 |  |
| CC(=O)Nc1ccc(C(=O)N[C@@H](CCCNC(=N)N)C(N)=O)cc1OCCc1ccc(Cl)cc1Cl [Example 3, (S)-4-Acetylamino-N-(1-carbamoyl-4-guanidinobutyl)-3-[2-(2,4-dichlorophenyl)ethoxy]benzamide] |  |  | 0.67 |  |
| N=C(N)NCCC[C@H](NC(=O)c1ccc(NC(=O)CCC(=O)O)c(OCCc2ccc(Cl)cc2Cl)c1)C(N)=O [Example 4, (S)-N-{4-(1-Carbamoyl-4-guanidinobutylcarbamoyl)-2-[2-(2,4-dichlorophenyl)ethoxy]phenyl}succinamic Acid] | 42 | 0.354 |  |  |
| N=C(N)NCCC[C@H](NC(=O)c1cc(O)c(Br)c(OCCc2ccc(Cl)cc2Cl)c1)C(N)=O [Example 5, (S)-4-Bromo-N-(1-carbamoyl-4-guanidinobutyl)-3-[2-(2,4-dichlorophenyl)-ethoxy]-5-hydroxybenzamide] | 58 | 0.018 |  |  |
| Cc1c(O)cc(C(=O)N[C@@H](CCCNC(=N)N)C(N)=O)cc1OCCc1ccc(Cl)cc1Cl [Example 6, (S)-N-(1-Carbamoyl-4-guanidinobutyl)-3-[2-(2,4-dichlorophenyl)ethoxy]-5-hydroxy-4-methylbenzamide] | 7.5 | 0.038 |  |  |
| N=C(N)NCCC[C@H](NC(=O)c1cccc(OCCc2ccc(Cl)cc2)c1)C(N)=O [Example 8] |  | 1.1 |  |  |
| N=C(N)NCCC[C@H](NC(=O)c1ccc([N+](=O)[O-])c(OCCc2ccc(Cl)cc2)c1)C(N)=O [Example 11] |  | 0.192 |  |  |
| Cc1ccc(CCOc2cccc(C(=O)N[C@@H](CCCNC(=N)N)C(N)=O)c2)cc1 [Example 16] |  | 6.15 |  |  |
| Cc1cc(C)c(CCOc2cc(C(=O)N[C@@H](CCCNC(=N)N)C(N)=O)nc3ccccc23)c(C)c1 [Example 32] |  | 13 |  | 13 |
| N=C(N)NCCC[C@H](NC(=O)c1cc(OCCc2ccc(Cl)cc2Cl)c2ccccc2n1)C(N)=O [Example 34] | 9.8 | 0.75 |  |  |
| N=C(N)NCCC[C@H](NC(=O)c1cc(O)c(Br)c(OCCc2ccc(Cl)cc2Cl)c1)C(=O)NCc1cccnc1 [Example 39, (S)-4-Bromo-3-[2-(2,4-dichlorophenyl)ethoxy]-N-{4-guanidino-1-[(pyridin-3-ylmethyl)carbamoyl]butyl}-5-hydroxybenzamide] | > 200 | 0.445 |  |  |
| CN(C)C(=O)[C@H](CCCNC(=N)N)NC(=O)c1cc(O)c(Br)c(OCCc2ccc(Cl)cc2Cl)c1 [Example 45] | > 200 | 0.031 |  |  |
| N=C(N)NCCC[C@H](NC(=O)c1cc(O)c(Br)c(OCCc2ccc(Cl)cc2Cl)c1)C(=O)O [Example 46] | > 200 | 0.059 |  |  |
| CCCOC(=O)[C@H](CCCNC(=N)N)NC(=O)c1cc(O)c(Br)c(OCCc2ccc(Cl)cc2Cl)c1 [Example 47] | > 200 | 0.021 |  |  |
| COc1ccc(C(=O)N[C@@H](CCCNC(=N)N)C(=O)N(C)C)cc1OCCc1ccc(Cl)cc1Cl [Example 48] | > 200 | 0.56 |  |  |
| CCCOC(=O)[C@H](CCCNC(=N)N)NC(=O)c1ccc(OC)c(OCCc2ccc(Cl)cc2Cl)c1 [Example 50] | > 200 | 0.729 |  |  |

Source: US6664393B2 (priority 1999, dated 2003)
